For nine compounds, GI50 and TGI results are on record in PubChem BioAssay (NCI).

The GI50 is the concentration at which growth is held to half of that of the control. As usually defined, the TGI is the concentration at which net growth stops. Lower therefore signals more potent growth arrest.

Several values for one entry are separate records, joined by “and”; a condition that tells them apart may be missing. Equal entries are not always repeated.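 1) Cells in 96-well plates. 2) Compound, 48 h, 5 concentrations. 3) Linear interpolation between surrounding doses. 4) Unreached endpoint = highest concentration. The concentration for 50% growth inhibition is given as GI50. TGI: concentration producing complete growth inhibition.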

Test systems include K-562 leukemia; SNB-19 CNS; SF-268 CNS; SK-OV-3 ovarian; HT29 colon; OVCAR-5 ovarian; OVCAR-8 ovarian; NCI-H460 lung; NCI-H226 lung; HCC-2998 colon.
Assay in all cases: DTP human tumour cell line panel, 48 h

As for `Clc1ccc2c(c1)-c1ccccc1C1=NCCN12`, the GI50 is 2.2 µM with K-562 leukemia; 2.5 µM in the assay with SNB-19 CNS; 1.91 µM in the assay on SF-268 CNS; 2.68 µM in the assay on SK-OV-3 ovarian; 1.17 µM with HT29 colon; 2.68 µM in the assay on OVCAR-5 ovarian. Further, the GI50 with OVCAR-8 ovarian is 1.22 µM; in the assay on NCI-H460 lung it was 1.49 µM; with NCI-H226 lung it was 1.45 µM; in the assay with HCC-2998 colon, 1.87 µM. Also, the TGI amounted to 7.61 µM with K-562 leukemia; 9.32 µM in the assay on SNB-19 CNS; 5.42 µM in the assay with SF-268 CNS; 8.64 µM in the assay on SK-OV-3 ovarian; 3.6 µM with HT29 colon; 13.4 µM in the assay with OVCAR-5 ovarian. In addition, the TGI was 5.4 µM in the assay with OVCAR-8 ovarian, 4.51 µM with NCI-H460 lung, 3.53 µM in the assay on NCI-H226 lung and 3.76 µM in the assay with HCC-2998 colon.
Turning to `O=C(/C=C1/NC(=O)CS1)Nc1ccccc1`, the concentration for total growth inhibition (TGI) with K-562 leukemia, with SNB-19 CNS, in the assay on SF-268 CNS, in the assay with SK-OV-3 ovarian, with HT29 colon and with OVCAR-5 ovarian was > 100 µM in each case. Besides, the TGI in the assay with OVCAR-8 ovarian, in the assay with NCI-H460 lung, in the assay with NCI-H226 lung and in the assay on HCC-2998 colon was > 100 µM each time.
For `O=C1/C(=C/c2ccc(Cl)cc2)COc2ccc(O)c(O)c21`, the GI50 is 0.321 µM in the assay with K-562 leukemia; 1.43 µM with SNB-19 CNS; 1.44 µM with SF-268 CNS; 2.49 µM with SK-OV-3 ovarian; 1.92 µM in the assay on HT29 colon; 1.6 µM with OVCAR-5 ovarian. For the same compound, the GI50 in the assay with OVCAR-8 ovarian is 1.11 µM; in the assay on NCI-H460 lung, 1.78 µM; in the assay with NCI-H226 lung, 1.86 µM; in the assay with HCC-2998 colon, 1.51 µM. The concentration for total growth inhibition (TGI) in the assay on K-562 leukemia was > 100 µM; in the assay with SNB-19 CNS it was 2.95 µM; in the assay with SF-268 CNS, 3.06 µM; with SK-OV-3 ovarian it was > 100 µM; in the assay on HT29 colon it was 3.98 µM; in the assay with OVCAR-5 ovarian, 3.21 µM. Moreover, the concentration for total growth inhibition (TGI) is 12.8 µM in the assay on OVCAR-8 ovarian, 3.89 µM with NCI-H460 lung, 5.18 µM with NCI-H226 lung and 2.96 µM with HCC-2998 colon.
With `COC(=O)[C@@H](C)C[C@H](Cc1ccccc1)NC(=O)c1csc([C@@H](C[C@H](C(C)C)N(C)C(=O)C2(NC(=O)[C@H]3CCCCN3C)CC2)OC(C)=O)n1`, the GI50 with K-562 leukemia is 0.00244 µM and 0.00333 µM; in the assay with SNB-19 CNS, 0.00824 µM and 0.00333 µM; in the assay on SK-OV-3 ovarian, 0.0183 µM and < 0.00333 µM; with HT29 colon, 0.00351 µM and 0.00333 µM; with NCI-H460 lung it was 0.0111 µM and 0.00333 µM; in the assay on NCI-H226 lung, 0.00333 µM. In addition, the GI50 in the assay with HCC-2998 colon is 0.00849 µM and 0.00333 µM. Also, the concentration for total growth inhibition (TGI) is > 33.3 µM in the assay with K-562 leukemia; > 33.3 µM in the assay on SNB-19 CNS; > 33.3 µM in the assay with SF-268 CNS; < 0.00333 µM with SK-OV-3 ovarian; 7.65 µM with HT29 colon; > 33.3 µM in the assay with OVCAR-5 ovarian. The concentration for total growth inhibition (TGI) in the assay with OVCAR-8 ovarian, in the assay on NCI-H460 lung, with NCI-H226 lung and with HCC-2998 colon was > 33.3 µM in each case.
`Cc1ccc(N2C(=O)/C(=C/c3ccc(N(CCC#N)CCC#N)cc3C)N=C2c2cc([N+](=O)[O-])ccc2Cl)cc1`: the concentration for total growth inhibition (TGI) in the assay on K-562 leukemia, in the assay on SNB-19 CNS, in the assay with SF-268 CNS, with SK-OV-3 ovarian, in the assay on HT29 colon and in the assay with OVCAR-5 ovarian was > 100 µM in each case. In addition, the total growth inhibition concentration (TGI) in the assay with OVCAR-8 ovarian, in the assay on NCI-H460 lung, in the assay on NCI-H226 lung and in the assay on HCC-2998 colon was > 100 µM each time.
In the case of `C[C@@H]1C[C@@]2(O[C@@H]2C)C(=O)O[C@@H]2CCN3CC=C(COC(=O)[C@]1(C)O)[C@H]23`, the TGI with K-562 leukemia, with SNB-19 CNS, with SF-268 CNS, in the assay on SK-OV-3 ovarian, in the assay with HT29 colon and with OVCAR-5 ovarian was > 100 µM in each case. Further, the concentration for total growth inhibition (TGI) with OVCAR-8 ovarian, in the assay with NCI-H460 lung, with NCI-H226 lung and with HCC-2998 colon was > 100 µM in each case.
Take `O=C(CCCCCCC(=O)Nc1ccc2c(c1)/C(=C/c1ccc[nH]1)C(=O)N2)NO`: the GI50 in the assay with K-562 leukemia was 0.333 µM; in the assay with SNB-19 CNS, 0.585 µM; in the assay on SF-268 CNS, 1.05 µM; with SK-OV-3 ovarian, 0.341 µM; in the assay on HT29 colon, 0.506 µM; in the assay with OVCAR-5 ovarian, 0.755 µM. In addition, the GI50 was 0.472 µM with OVCAR-8 ovarian, 2.67 µM in the assay on NCI-H460 lung, 2.28 µM with NCI-H226 lung and 1.64 µM with HCC-2998 colon. The TGI in the assay with K-562 leukemia was > 100 µM; with SNB-19 CNS it was 33.2 µM; in the assay on SF-268 CNS, 13.3 µM; in the assay with SK-OV-3 ovarian, 3.85 µM; in the assay on HT29 colon, 8.51 µM; in the assay with OVCAR-5 ovarian, 5.75 µM. Moreover, the total growth inhibition concentration (TGI) in the assay with OVCAR-8 ovarian is > 89.4 µM; in the assay on NCI-H460 lung it was > 100 µM; in the assay with NCI-H226 lung it was 12 µM; in the assay with HCC-2998 colon it was 10.9 µM.
`Cc1cc(=O)oc2cc(OCc3nc4ccccc4c(=O)[nH]3)ccc12`: the concentration for total growth inhibition (TGI) in the assay with K-562 leukemia, in the assay on SNB-19 CNS, with SF-268 CNS, with SK-OV-3 ovarian, in the assay on HT29 colon and in the assay on OVCAR-5 ovarian was > 100 µM throughout. The TGI in the assay on OVCAR-8 ovarian, with NCI-H460 lung, in the assay on NCI-H226 lung and with HCC-2998 colon was > 100 µM in each case.
`NCCCCN(Cc1nc2ccccc2[nH]1)[C@H]1CCCc2cccnc21`: the GI50 in the assay on K-562 leukemia is 12.6 µM; with SNB-19 CNS, 26.9 µM; in the assay with SF-268 CNS, 9.71 µM; with SK-OV-3 ovarian, 18.6 µM; with HT29 colon it was 6.29 µM; in the assay with OVCAR-5 ovarian, 11.8 µM. The GI50 is 20 µM in the assay with OVCAR-8 ovarian, 7.47 µM in the assay with NCI-H460 lung, 12.5 µM in the assay with NCI-H226 lung and 16.9 µM in the assay with HCC-2998 colon. Also, the TGI was 43.3 µM in the assay on K-562 leukemia; > 100 µM with SNB-19 CNS; 97.3 µM in the assay with SF-268 CNS; > 86.5 µM in the assay on SK-OV-3 ovarian; 34.1 µM with HT29 colon; > 100 µM with OVCAR-5 ovarian. Moreover, the TGI in the assay with OVCAR-8 ovarian is > 100 µM; in the assay with NCI-H460 lung, > 100 µM; in the assay on NCI-H226 lung, 44.4 µM; with HCC-2998 colon it was 38.2 µM.
